According to patent US20120190814A1, “Thiol Protecting Group” (UCL BUSINESS PLC, priority 2009, published 2012):

Tested on: GIRK currents
Assay: patch clamp assay, control treatment with Pertussis toxin or GIRK inhibitor
Type: cell-based, human
Conditions: Tertiapin 100 nM, pertussis toxin 100 ng/ml overnight
Procedure: HEK 293 cells expressing HKIR3.1/3.2 channel and human somatostatin receptor 2 were treated with these compounds, and whole cell patch-clamp current recordings taken.
Whole cell patch-clamp current recordings were performed with an Axopatch 200B amplifier (Axon Instruments) using fire-polished pipettes with a resistance of 3-4 MΩ pulled from filamented borosilicated glass capillaries (Harvard Apparatus, 1.5 mm OD×1.17 mm ID). Data was acquired and analysed via a Digidata 1322A interface (Axon Instruments) and pCLAMP software (version 8.1, Axon Instruments). A fast perfusion system was used to apply somatostatin and analogues (Rapid Solution Changer, RSC-160, Bio-Logic France). Cells were clamped at −60 mV. The extracellular solution was (mM): NaCl 80, KCl 60, CaCl22, MgCl21, HEPES 10, NaH2PO4 0.33, glucose 10, pH 7.4; while the intracellular solution was (mM): K gluconate 110, KCl 20, NaCl 10, MgCl2 1, MgATP 2, EGTA 2 GTP 0.3, pH 7.4. After agonist application, current activated with a delay “lag” followed by a rapid rise to peak amplitude “time to peak”. After removal of the agonist, the current decays back to baseline. For each cell it was assessed if flow artifacts resulting from the pressure of drug application were present. This was done by applying bath solution from one of the sewer pipes at the beginning of the recordings. […]

Substance	GIRK currents when cells were treated with control inhibitor
Tertiapin Q	currents were largely inhibited
Pertussis toxin	currents were largely inhibited
